# Results: patent publication US6498138B1, “Method of promoting production of living tissue equivalents” (University of Southern California, priority 1998, dated 2002)
# “Also recorded” adds a separate entry of the source. Square brackets hold non-standard residues; d marks the D form. Ends that are not written are not given here. Phe(4-NH2) = Nc1ccc(C[C@H](N)C(=O)O)cc1; Nle = CCCC[C@H](N)C(=O)O; Ac5c = NC1(C(=O)O)CCCC1
# Columns and labels:
# [1] = test system: Normal human fibroblasts; experiment: Contraction of collagen lattices by human fibroblasts; type: cell-based; details: for Diameter of Lattice, Day 1 / Diameter of Lattice, Day 2 / Diameter of Lattice, Day 3 / Diameter of Lattice, Day 4: 10 μg/ml peptide, 1×10^5 fibroblasts/well; for Diameter of Lattice, Day 1: Day 1 of culture; for Diameter of Lattice, Day 2: Day 2 of culture; for Diameter of Lattice, Day 3: Day 3 of culture; for Diameter of Lattice, Day 4: Day 4 of culture
# Protocol: Normal human fibroblasts were purchased from Clonetics (San Diego, Calif.) and were thawed and cultured in Fibroblast Growth Medium (Clonetics) according to the manufacturer's instructions. Once the cells reached confluence in the flask, they were harvested by trypsinization and utilized for the studies described below.
# Rat tails were harvested from 200 gram female rats and frozen until use. The frozen rat tails were thawed in 70% (vol/vol) ethanol for 20 minutes. The tendon bundles were excised in 70% ethanol in a vertical laminar flow hood. The individual tendons were pulled out of the tendon sheath, minced, and placed in dilute acetic acid (1:1000) using 250 ml per tail. The mixture was incubated at 4° C. for 48 hours, at which point the minced tendons had swelled to the volume of the dilute acetic acid. The viscous mixture was centrifuged at 23,000 rpm in a Beckman L ultracentrifuge for 1 hour. The supernatant was harvested and further refined. This crude collagen solution was mixed with 0.1M NaOH in a 6:1 ratio to neutralize the acetic acid and precipitate the collagen. The mixture was then centrifuged at 1500 rpm for 5 minutes. The supernatant was discarded and an equal volume of fresh acetic acid (1:1000) was introduced to resolubilize the collagen over 48 hours. This solution was stored at 4° C. as refined collagen. The protein concentration was determined by BCA assay.
# The collagen lattices for the assessment of contraction by fibroblasts and angiotensin II were formed in 60 mm Falcon bacteriological dishes. Each dish contained 1 ml 4×DMEM High glucose medium, 1 ml fetal calf serum, 0.25 ml NaOH, 1.5 ml of 500 μg/ml refined collagen and 1 ml of fibroblasts in Fibroblast Growth Medium (7.5×10^4 cells/ml to 7.5×10^5 cells/ml). In these cultures, various concentrations of AII (1 to 10 μg/ml) were added to assess the effect of AII on the formation of an artificial dermis. The cultures were placed in an incubator at 37° C. in an atmosphere of 5% CO2 in air. At various times after culture initiation, the diameter of the formed lattice was measured. As there are slight differences in diameter at various points (ie: the lattices were not always perfectly round), the average of the largest and the smallest diameters were taken.
# Similar experiments were conducted using AII analogues and fragments, except that ten μg/ml of each of the peptides shown in Table 3 were added to 1×10^5 of fibroblasts/well. At various times after culture initiation, the diameter of the formed lattice was measured.
# [2] = test system: Human keratinocytes; experiment: Keratinocyte proliferation on Integra artificial dermis; type: cell-based; details: 10 μg/ml peptide, 1×10^5 cells/ml
# Excerpt: Integra, a commercially available artificial dermis of chondrotin sulfate and collagen, was obtained (Integra Life Sciences) and used in culture as a matrix for keratinocyte growth. The Integras was washed free of preservative by a sterile saline for injection and cut to size to fit snugly into the bottom of 24 well plates. After trimming, the pieces of Integra were placed silicone-side down into the wells.
# Human keratinocytes were purchased from Clonetics and thawed and cultured as described in Example 3, except that they were grown in Keratinocyte Growth Medium, as per the manufacturer's instructions. Once the cells reached confluence in the flask, they were detached from the tissue culture flasks by trypsinization. The cells were resuspended at 1×10^5 cells/ml in Keratinocyte Growth Medium or Keratinocyte Basal Medium with or without 10 μg/ml of various AII-related peptides (AII, AII(1-7), Pro3 AII(1-7), Ala4-AIII, and Pro3-AII; see Table 5 below). One ml of these cell preparations was added to wells of the 24 well plates containing Integra membrane. The cultures were placed in an incubator at 37° C. in an atmosphere of 5% CO2 in air. At various times after initiation of the cultures, the number of keratinocytes on the surface of the Integra membrane in 5 100×fields was assessed under phase contrast microscopy.
# [3] = test system: keratinocytes from explants of human skin; experiment: Outgrowth of keratinocytes from explants of human skin on Dermagraft; type: cell-based; details: AII 1 or 10 μg/ml, 7 days
# Excerpt: Human skin explants were obtained from surgery of split thickness skin grafts and cut by scalpel in to 2 mm×2 mm squares. Ten explants per condition were placed dermal side down on frozen and thawed Dermagraft (Advanced Tissue Sciences, San Diego, Calif.) and cultured at the air-liquid interface using Keratinocyte-SFM medium (Gibco BRL, Grand Island, N.Y.) supplemented with epidermal growth factor and bovine pituitary extract according to the manufacturer's instructions. The culture medium contained penicillin (50 U/ml) and streptomycin (50 μg/ml) and extra calcium chloride to a final concentration of 1 mM. Angiotensin II was added to the culture medium at a final concentration of 1 or 10 μg/ml. The cultures were maintained at 37° C. with 5% CO2 and medium with and without AII and the medium was changed twice weekly. After 7 days, the cultures were fixed in formalin for one hour, stained with hematoxylin and washed in tap water. The dermal replacements appeared dark purple except for the area where the keratinocytes exclude the stain. Cultures were photographed using a dissection microscope at a fixed magnification and the area of outgrowth was quantified by gravimetric planimetry.
# [4] = test system: AT2 receptor; details: cited from earlier work
# [5] = test system: living skin equivalent (LSE) epidermis; experiment: Epidermal thickness of living skin equivalent (LSE) presoaked in AII and grafted on nude mice; type: in vivo, Swiss nude mice
# Excerpt: Twenty three male Swiss nude mice (22-24 grams) were purchased from Taconic Laboratories and quarantined at least two days prior to surgery, and divided into 4 groups of mice. The mice were anesthetized with an intramuscular injection of Ketamine (ketaset; Phoenix Pharmaceuticals, Inc.) and Rompun (xylazine; Phoenix Pharmaceuticals, Inc.) and a 1 cm×1 cm full thickness skin excision was made on their dorsal surface. Each group received an Apligraph LSE (Organogenesis; Canton, Mass.) that had been soaked for 10 minutes in concentrations of AII ranging from 0 to 1.0 mg/ml. The LSE was placed in the defect and trimmed with microscissors so that no gap was observed between the edges of the mouse skin and the LSE. After the graft was placed, the dorsal surface of the mouse was covered by petroleum embedded gauze (Dermacea) followed by two adhesive bandages (Baxter). After recovery from anesthesia, the mice were returned to their individual cages and observed daily until euthenasia. The mice received intramuscular analgesia for the first three days after surgery. No mouse lost their bandage prior to bandage removal on day 7 and day 23. […]
# […] The thickest part of each graft was measured and the thickness of the graft at one-half of a 10×field to each side of the thickest portion was also measured.
# [6] = Unspecified test of effectiveness of AII fragments; details: test not specified
substance,measurement,setting,value
--RVYnLHPF (RVY[Nle]HPF) [NorLeu4 AIII],"Diameter of Lattice, Day 1",[1],3.4 cm
same,"Diameter of Lattice, Day 2",[1],2.0 cm
same,"Diameter of Lattice, Day 3",[1],1.6 cm
same,"Diameter of Lattice, Day 4",[1],1.5 cm
Asp-Arg-Val-Tyr-Ile-His-Pro (DRVYIHP) [AII(1-7)],"Diameter of Lattice, Day 1",[1],3.4 cm
same,"Diameter of Lattice, Day 2",[1],2.4 cm
same,"Diameter of Lattice, Day 3",[1],2.0 cm
same,"Diameter of Lattice, Day 4",[1],1.7 cm
same,proliferation of keratinocytes (number on the surface of the Integra membrane),[2],increased the proliferation of keratinocytes
"Asp-Arg-Val-Tyr-Ile-His-Pro-Phe (DRVYIHPF) [AII, known pressor agent, commercially available, reference compound]","Diameter of Lattice, Day 1",[1],3.3 cm
same,"Diameter of Lattice, Day 2",[1],2.4 cm
same,"Diameter of Lattice, Day 3",[1],1.6 cm
same,"Diameter of Lattice, Day 4",[1],1.4 cm
same,contraction of collagen lattices,"[1]; AII 1 to 10 μg/ml, fibroblasts 7.5×10^4 to 7.5×10^5 cells/ml",accelerated the contraction of collagen lattices
same,area of the artificial dermis covered with keratinocytes (outgrowth),[3],increased the area of the artificial dermis covered with keratinocytes
same,affinity for AT2 than AT1,[4]; AT2 versus AT1,100 times
same,vessels attached to underside of graft,"[5]; day 7, one of the AII-treated grafts",numerous vessels attached to its underside
same,epidermal thickness,"[5]; day 23 post-grafting, LSE soaked 10 minutes in AII 0 to 1.0 mg/ml",increased in a concentration-dependent manner
same,proliferation of keratinocytes (number on the surface of the Integra membrane),[2],increased the proliferation of keratinocytes
Asp-Arg-Val-Tyr-Ile-Xaa-Pro-Phe (DRVYI[Phe(4-NH2)]PF) [(p-NH2-Phe)6-AII],binding characteristics,"[4]; experimental models tested, compared with AT2 antagonists",comparable to AT2 antagonists
DR(Acpc)YIHPF (DR[Ac5c]YIHPF) [Acpc3 AII],"Diameter of Lattice, Day 1",[1],3.5 cm
same,"Diameter of Lattice, Day 2",[1],2.0 cm
same,"Diameter of Lattice, Day 3",[1],1.6 cm
same,"Diameter of Lattice, Day 4",[1],1.4 cm
DRPYIHP [Pro3 AII(1-7)],proliferation of keratinocytes (number on the surface of the Integra membrane),[2],increased the proliferation of keratinocytes
DRPYIHPF [Pro3-AII],proliferation of keratinocytes (number on the surface of the Integra membrane),[2],increased the proliferation of keratinocytes
DRVYIHPI [Ile8 AII],"Diameter of Lattice, Day 1",[1],3.4 cm
same,"Diameter of Lattice, Day 2",[1],2.4 cm
same,"Diameter of Lattice, Day 3",[1],1.7 cm
same,"Diameter of Lattice, Day 4",[1],1.4 cm
GRVYIHPF [Gly1 AII],"Diameter of Lattice, Day 1",[1],3.4 cm
same,"Diameter of Lattice, Day 2",[1],2.2 cm
same,"Diameter of Lattice, Day 3",[1],1.6 cm
same,"Diameter of Lattice, Day 4",[1],1.5 cm
His-Pro-Phe (HPF) [AII(6-8)],effectiveness,[6],not to be effective
RVYAHPF [Ala4-AIII],"Diameter of Lattice, Day 1",[1],3.4 cm
same,"Diameter of Lattice, Day 2",[1],2.7 cm
same,"Diameter of Lattice, Day 3",[1],1.9 cm
same,"Diameter of Lattice, Day 4",[1],1.6 cm
same,proliferation of keratinocytes (number on the surface of the Integra membrane),[2],increased the proliferation of keratinocytes
Tyr-Ile-His-Pro-Phe (YIHPF) [AII(4-8)],effectiveness,[6],not to be effective; also recorded: ineffective in repeated tests
